The test system of experiment [1] is L1210. As to the kind of experiment: Mitotic index (fraction of cells in mitosis divided by total cells) in cultured lymphoid leukemia L1210 cells. It counts as functional, Mus musculus.
For experiment [2], the system named is P388. As to the kind of experiment: Increase in the life span of mice with P388 leukemia after the administration of the highest non toxic dose (2 mg/kg). It counts as functional, Mus musculus.
The test system of experiment [3] is L1210. Kind of experiment: Inhibitory activity against lymphoid leukemia L1210 cells. It counts as functional, cell-based. To be noted: Mus musculus.
Experiment [4] concerns P388. Kind of experiment: Increase in the life span of mice with P388 leukemia after the administration of the highest non toxic dose (0.5 mg/kg). It counts as functional, Mus musculus.
The test system of experiment [5] is P388. As to the kind of experiment: Increase in the life span of mice with P388 leukemia after the administration of the highest non toxic dose (30 mg/kg). Format: functional. To be noted: Mus musculus.
Experiment [6] has as its system P388. Kind of experiment: Increase in the life span of mice with P388 leukemia after the administration of the highest non toxic dose (1 mg/kg). It counts as functional. The settings on record: Mus musculus.

For orientation: IC50 means the midpoint of a concentration-inhibition curve. A high value points to weaker potency. For `CCOC(=O)Nc1cc2c(c(N)n1)N=C(c1ccccc1)CN2`, the MI0.5 in experiment [1] was determined as 2.8 nM. The compound further returned an Increase in experiment [2] of 51%. The IC50 in experiment [3] is 4.7 nM.
Compound `CCOC(=O)Nc1cc2c(c(N)n1)N=C(c1ccccc1)[C@H](C)N2` [MIVOBULIN] displayed an MI0.5 in experiment [1] of 0.14 nM. In experiment [3], the IC50 amounted to 0.094 nM. The same compound returned an Increase in experiment [4] of 64%.
Broadly, the ILS is how much longer treated animals lived than controls. Read a high ILS as a large benefit in survival. In experiment [1], `CCOC(=O)Nc1cc2c(c(N)n1)N=C(c1ccccc1)[C@@H](C)N2` showed an MI0.5 of 27 nM. Besides, the ILS at 30 mg/kg in experiment [5] amounted to 88%. The midpoint of inhibition in experiment [3], the IC50, lay at 17 nM.
For `CCOC(=O)Nc1cc2c(c(N)n1)N=C(c1ccccc1)C(C)N2` (configuration not stated), the MI0.5 in experiment [1] is 0.58 nM. In experiment [3], this compound yielded an IC50 of 0.2 nM. The compound also had an ILS at 1 mg/kg in experiment [6] of 71%.

Source of the values: ChEMBL document CHEMBL1124583, “New anticancer agents: chiral isomers of ethyl 5-amino-1,2-dihydro-2-methyl-3-phenylpyrido[3,4-b]pyrazine-7-car bamate ” (J Med Chem, 1989).
